Experimental data as given in publication doi:10.1101/706168v1 (biorxiv, 2019).

How the values were obtained:
Assay in all cases: cell-based
TRPC6 = biological target: T1, TRPC6 (Homo sapiens, UniProt Q9Y210)
T1 sequence (Q9Y210 1-931): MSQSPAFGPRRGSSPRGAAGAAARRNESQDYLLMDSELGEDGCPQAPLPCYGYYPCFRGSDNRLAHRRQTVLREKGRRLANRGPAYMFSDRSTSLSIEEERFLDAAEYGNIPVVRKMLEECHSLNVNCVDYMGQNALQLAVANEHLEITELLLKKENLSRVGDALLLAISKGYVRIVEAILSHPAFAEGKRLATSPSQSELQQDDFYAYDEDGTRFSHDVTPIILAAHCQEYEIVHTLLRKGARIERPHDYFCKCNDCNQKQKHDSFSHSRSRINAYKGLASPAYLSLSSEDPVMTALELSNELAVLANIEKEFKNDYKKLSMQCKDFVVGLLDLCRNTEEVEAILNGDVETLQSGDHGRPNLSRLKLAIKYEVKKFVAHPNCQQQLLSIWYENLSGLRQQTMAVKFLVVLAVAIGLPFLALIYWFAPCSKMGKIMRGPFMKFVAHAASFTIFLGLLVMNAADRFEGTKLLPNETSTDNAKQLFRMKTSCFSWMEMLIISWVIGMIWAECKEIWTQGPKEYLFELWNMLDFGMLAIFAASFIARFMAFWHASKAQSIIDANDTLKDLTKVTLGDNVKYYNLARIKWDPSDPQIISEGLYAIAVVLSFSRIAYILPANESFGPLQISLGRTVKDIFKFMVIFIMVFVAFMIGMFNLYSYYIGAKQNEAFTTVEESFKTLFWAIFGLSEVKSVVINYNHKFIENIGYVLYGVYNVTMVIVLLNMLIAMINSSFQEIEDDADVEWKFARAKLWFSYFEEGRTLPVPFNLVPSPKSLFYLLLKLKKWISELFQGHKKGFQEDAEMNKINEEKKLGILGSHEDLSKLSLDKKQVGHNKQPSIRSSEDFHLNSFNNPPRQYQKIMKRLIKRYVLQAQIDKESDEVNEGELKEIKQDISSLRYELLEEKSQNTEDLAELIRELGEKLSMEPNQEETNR

Nav1.5 = Nav1.5 (Homo sapiens, UniProt Q14524)
Sequence of Nav1.5 (Q14524 whole entry): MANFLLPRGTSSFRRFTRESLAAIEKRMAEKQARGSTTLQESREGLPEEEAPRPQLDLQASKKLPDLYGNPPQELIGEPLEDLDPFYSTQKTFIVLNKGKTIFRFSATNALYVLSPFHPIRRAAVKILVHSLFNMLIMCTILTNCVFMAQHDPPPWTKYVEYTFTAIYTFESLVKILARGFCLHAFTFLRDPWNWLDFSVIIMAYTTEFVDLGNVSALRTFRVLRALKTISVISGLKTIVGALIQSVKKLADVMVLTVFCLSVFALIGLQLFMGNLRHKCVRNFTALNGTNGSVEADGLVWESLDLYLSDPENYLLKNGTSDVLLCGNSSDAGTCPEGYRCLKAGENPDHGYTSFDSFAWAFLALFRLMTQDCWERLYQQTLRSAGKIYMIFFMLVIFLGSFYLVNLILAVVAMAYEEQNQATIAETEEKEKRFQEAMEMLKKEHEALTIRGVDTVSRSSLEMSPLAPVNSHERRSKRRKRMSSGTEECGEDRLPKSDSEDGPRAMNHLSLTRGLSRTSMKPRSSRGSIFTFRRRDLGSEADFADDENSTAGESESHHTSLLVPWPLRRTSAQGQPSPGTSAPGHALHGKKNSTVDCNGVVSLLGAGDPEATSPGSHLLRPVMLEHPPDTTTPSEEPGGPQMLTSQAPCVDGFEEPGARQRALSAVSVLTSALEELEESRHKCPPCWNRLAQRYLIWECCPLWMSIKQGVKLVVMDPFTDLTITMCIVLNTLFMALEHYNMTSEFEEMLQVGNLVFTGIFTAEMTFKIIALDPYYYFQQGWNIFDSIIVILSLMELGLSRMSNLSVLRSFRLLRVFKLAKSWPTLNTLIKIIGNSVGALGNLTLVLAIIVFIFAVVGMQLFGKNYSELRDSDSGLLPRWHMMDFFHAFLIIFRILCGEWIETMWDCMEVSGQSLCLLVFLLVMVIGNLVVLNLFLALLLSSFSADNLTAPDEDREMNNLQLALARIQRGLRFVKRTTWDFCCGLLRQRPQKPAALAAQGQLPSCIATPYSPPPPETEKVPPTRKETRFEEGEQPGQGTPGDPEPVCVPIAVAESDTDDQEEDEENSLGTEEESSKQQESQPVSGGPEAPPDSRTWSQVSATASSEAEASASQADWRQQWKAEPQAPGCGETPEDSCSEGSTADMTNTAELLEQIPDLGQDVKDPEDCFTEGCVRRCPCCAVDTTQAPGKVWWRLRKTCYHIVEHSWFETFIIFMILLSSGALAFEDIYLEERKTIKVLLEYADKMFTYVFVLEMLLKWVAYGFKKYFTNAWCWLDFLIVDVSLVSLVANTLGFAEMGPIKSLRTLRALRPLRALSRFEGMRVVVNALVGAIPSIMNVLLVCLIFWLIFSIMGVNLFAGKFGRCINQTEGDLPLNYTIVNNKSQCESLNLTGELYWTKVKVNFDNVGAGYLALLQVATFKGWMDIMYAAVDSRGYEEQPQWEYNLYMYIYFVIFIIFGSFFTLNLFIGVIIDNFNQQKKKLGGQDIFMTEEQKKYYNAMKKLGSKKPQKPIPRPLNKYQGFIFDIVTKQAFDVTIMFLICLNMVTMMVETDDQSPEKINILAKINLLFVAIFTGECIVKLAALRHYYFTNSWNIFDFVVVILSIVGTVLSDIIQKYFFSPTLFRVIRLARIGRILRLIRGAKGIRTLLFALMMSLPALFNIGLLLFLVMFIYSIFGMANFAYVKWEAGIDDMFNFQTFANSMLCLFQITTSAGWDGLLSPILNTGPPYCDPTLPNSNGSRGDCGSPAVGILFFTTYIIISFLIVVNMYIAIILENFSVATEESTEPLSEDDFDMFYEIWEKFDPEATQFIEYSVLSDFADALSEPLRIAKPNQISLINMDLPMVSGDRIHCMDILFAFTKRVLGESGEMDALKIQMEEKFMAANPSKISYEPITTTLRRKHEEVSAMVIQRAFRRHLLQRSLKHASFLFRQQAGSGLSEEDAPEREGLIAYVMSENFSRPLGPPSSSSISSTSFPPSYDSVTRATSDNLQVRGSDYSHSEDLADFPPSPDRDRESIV

HCN4 = biological target: T2, HCN4 (Homo sapiens, UniProt Q9Y3Q4)
T2 sequence (Q9Y3Q4 1-1203): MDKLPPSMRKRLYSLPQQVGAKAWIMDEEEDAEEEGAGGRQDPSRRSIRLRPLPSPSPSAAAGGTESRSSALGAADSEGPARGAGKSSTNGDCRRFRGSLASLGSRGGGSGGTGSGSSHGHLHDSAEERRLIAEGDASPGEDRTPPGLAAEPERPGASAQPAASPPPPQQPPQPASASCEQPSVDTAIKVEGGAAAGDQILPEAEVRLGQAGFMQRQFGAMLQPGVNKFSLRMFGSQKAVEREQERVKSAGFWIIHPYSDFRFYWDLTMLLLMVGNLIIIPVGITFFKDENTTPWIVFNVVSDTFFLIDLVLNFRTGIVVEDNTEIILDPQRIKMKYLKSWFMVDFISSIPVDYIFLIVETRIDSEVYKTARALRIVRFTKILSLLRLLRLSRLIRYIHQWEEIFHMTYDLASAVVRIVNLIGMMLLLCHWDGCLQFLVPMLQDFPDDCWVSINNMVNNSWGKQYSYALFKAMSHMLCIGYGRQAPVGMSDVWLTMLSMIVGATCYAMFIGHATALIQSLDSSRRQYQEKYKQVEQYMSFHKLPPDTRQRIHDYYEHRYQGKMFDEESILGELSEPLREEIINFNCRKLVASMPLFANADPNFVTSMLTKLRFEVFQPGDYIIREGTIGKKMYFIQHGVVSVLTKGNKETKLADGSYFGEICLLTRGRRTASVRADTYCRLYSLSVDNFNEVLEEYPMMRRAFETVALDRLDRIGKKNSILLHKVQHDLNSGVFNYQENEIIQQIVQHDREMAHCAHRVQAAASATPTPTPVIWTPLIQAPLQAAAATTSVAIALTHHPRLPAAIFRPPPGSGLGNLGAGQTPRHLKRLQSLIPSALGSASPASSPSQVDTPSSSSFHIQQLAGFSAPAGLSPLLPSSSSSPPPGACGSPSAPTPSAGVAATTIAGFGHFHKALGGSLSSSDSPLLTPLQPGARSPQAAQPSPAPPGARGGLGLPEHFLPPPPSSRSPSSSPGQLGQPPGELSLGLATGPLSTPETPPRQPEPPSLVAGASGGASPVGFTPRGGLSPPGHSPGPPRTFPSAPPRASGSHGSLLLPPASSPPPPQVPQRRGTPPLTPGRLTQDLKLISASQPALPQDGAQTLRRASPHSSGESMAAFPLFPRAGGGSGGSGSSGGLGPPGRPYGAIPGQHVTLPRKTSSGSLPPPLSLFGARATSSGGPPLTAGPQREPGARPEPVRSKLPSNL

IC50 (TRPC6): > 30 µM
IC50 (HCN4): > 30 µM
SMILES: O=C(c1ccccc1F)N1CCN(Cc2c(-c3ccc(Br)cc3)nc3ccccn23)CC1 [BAY 1000493, (4-{[2-(4-bromophenyl)imidazo[1,2-a]pyridin-3-yl]methyl}vpiperazin-1-yl)(2-fluorophenyl)methanone]
IC50 (Nav1.5): > 30 µM
